Patent US10722547B2, “Compositions of medicinal plants for reducing the effects of aging, prevention and treatment of age-related neurodegenerative diseases, and treatment of anxiety and sleep disorders” (PharmacoGenetics Limited, priority 2016, dated 2020)

Assays:
D-galactose treated mice = assay: Loss of whiskers induced by D-galactose treatment; format: in vivo, male ICR mice; settings: D-galactose 150 mg/kg daily with or without 120 mg/kg oral extract, 8 weeks; N=12 mice/group
Method: Chronic exposure to D-galactose is a widely studied aging model that causes shortened lifespan in Drosophila and housefly (Jordens et al 1999; Cui et al 2004), and brings about spatial memory deficit, degeneration in the hippocampus and increased oxidative damage in a D-galactose-induced accelerated-aging model of the mouse (Cui et al 2006). […] In the present study, this D-galactose model was applied to 10 week old male ICR mice (n=8-12 per group). The mice were administered daily with 150 mg/kg D-galactose by subcutaneous injection, accompanied by either daily oral administration of the vehicle (0.9% NaCl) in the D-galactose treated control group (“D-gal”), or daily oral administration of one of the BYPA, BYP, BYA, BPA, YPA, BY, BP and YP herbal extracts (120 mg/kg), for an exposure period of 8 weeks. […] The resultant levels of accelerated aging in the D-gal group, the various herbal extract-treatment groups, and the Veh group were assessed at the end of the 8-week exposure period based on five criteria: (i) body weight; (ii) deficit in spatial memory in the Y-maze test; (iii) levels of the pro-inflammatory cytokine TNF-alpha in the brain; (iv) levels of the pro-inflammatory cytokine IL-6 in the brain; and (v) levels of the oxidative stress marker MDA in the brain. […]

[1] = test system: D-galactose treated animals; settings: cited from earlier work
mice [2] = assay: Rotarod test; format: in vivo, male ICR mice; settings: diazepam at 1 or 3 mg/kg oral; p<0.001 vs vehicle
Method: Rotarod test. Mice randomly separated into groups (n=15−20/group) were orally administered 35 minutes prior to the rotarod test with vehicle (“Veh”, viz. 0.9% NaCl), 1 or 3 mg/kg DZ, or 120 mg/kg of one of the one-, two-, three- or four-herb extracts. The rotarod test for muscle coordination was performed using a custom-built apparatus consisted of a cylinder (2.5 cm diameter) with a textured surface placed 0.5 m above the ground. Prior to oral Veh, DZ or herbal extract administration, the mice were first trained to stay for 2 min on the rotarod revolving at 16 rpm. In the test, the effect of Veh, DZ or herbal extract treatment was examined by placing the mouse on the rotarod and recording the length of time it managed to stay on the rotarod, with cut-off set at 2 min.

mice [3] = assay: Step-through passive avoidance test; format: in vivo, male ICR mice; settings: diazepam at 1 or 3 mg/kg oral; p<0.001 vs vehicle
Method: Step-through passive avoidance test. Mice randomly separated into groups (n=15−20/group) were orally administered with vehicle (“Veh”, viz. 0.9% NaCl), 1 or 3 mg/kg DZ, or 120 mg/kg of one of the one-, two-, three- or four-herb extracts 35 minutes prior to training trials. The apparatus consisted of a two-chamber box (from Chinese Academy of Chinese Medical Science, Beijing) with one of the chambers being opaque (darkened) and the other transparent (lighted). In the training trials, each mouse was placed into the lighted chamber, and the door connecting the lighted and darkened chambers was opened 10 seconds later. […] In the actual test, after the mouse entered the darkened chamber, the door was closed and a 2-second electric foot shock of 0.4 mA was delivered through the grid floor. Ten seconds later the mouse was transferred from the darkened chamber back to its home cage. After an interval of 24 hours, it was returned to the lighted chamber. The door to the darkened chamber was opened 10 seconds later, and the time taken for the mouse to enter the darkened chamber was recorded as the ‘step-through latency’, with cut-off set at 300 seconds. A significant decrease in step-through latency observed with any group of animals compared to Veh-treated controls was indicative of impaired […] in the form of anterograde amnesia (Nazari-Serenj eh et al, 2011).

mice [4] = assay: Locomotor activity test; format: in vivo, male ICR mice; settings: 3 mg/kg diazepam oral; p<0.001 vs vehicle
Method: Locomotor activity test. Following the elevated plus-maze and holeboard tests, the Veh-treated mice, DZ-treated mice and variously herbal extract-treated mice were assessed for locomotor activity by means of the ZIL-2 apparatus (Beijing Institute of Materia Medica). The test apparatus, with dimensions of 60 cm×60 cm×12 cm, consisted of a transparent plastic cylindrical box equipped with three evenly spaced infrared beams with photodetectors. The number of transitions made across the infrared beams was recorded automatically over a period of 5 minutes. An increase or decrease in the number of transitions indicated a corresponding increase or decrease in the level of locomotor activity (Hui et al, 2002).

O=C[C@H](O)[C@@H](O)[C@@H](O)[C@H](O)CO [D-gal, D-galactose]
Loss of whiskers (% mice) 0 (no loss of whiskers) (D-galactose treated mice): 50 % mice | Loss of whiskers (% mice) + (loss of whiskers) (D-galactose treated mice): 50 % mice

O=C(O)CCCC[C@@H]1CCSS1 [R-α-lipoic acid]
cognitive dysfunction and neurodegeneration ([1]; 100 mg/kg i.p., Cui 2006): can ameliorate

C[C@H]1[C@H](C)CC[C@]2(C(=O)O)CC[C@]3(C)C(=CC[C@@H]4[C@@]5(C)C[C@@H](O)[C@H](O)[C@@](C)(CO)[C@@H]5CC[C@]43C)[C@H]12 [asiatic acid]
elevated levels of brain ROS, TNF-alpha and IL-6 ([1]; oral, 10 or 20 mg/kg, Chao et al 2015): can reduce

CN1C(=O)CN=C(c2ccccc2)c2cc(Cl)ccc21 [diazepam, Diazepam]
time of stay on the moving rotarod (muscle coordination) (mice [2]): significant reduction | step-through latency (anterograde amnesia) (mice [3]): significant anterograde amnesia | locomotor activity (mice [4]): significant reduction

CC(C)=CCC[C@](C)(O[C@@H]1O[C@H](CO)[C@@H](O)[C@H](O)[C@H]1O)[C@H]1CC[C@]2(C)[C@@H]1[C@H](O)C[C@@H]1[C@@]3(C)CC[C@H](O)C(C)(C)[C@@H]3[C@@H](O[C@@H]3O[C@H](CO)[C@@H](O)[C@H](O)[C@H]3O)C[C@]12C [ginsenoside Rg1]
cognitive impairment and hippocampus senescence ([1]; 20 mg/kg i.p., Zhu et al 2014): can prevent
